The values that follow are results of earlier work, collected in US20060142395A1, “Modulation of intracellular calcium signaling by N-acylethanolamines” (University of North Texas Health Science Center, priority 2003, published 2006).

Each structure is given as a SMILES string.

For this series, the system named is rats and mice. To be noted: transient ischemia with reperfusion and permanent occlusion; cited from earlier work.

`C[C@]12CC[C@@H]3c4ccc(O)cc4CC[C@H]3[C@@H]1CC[C@@H]2O` [17β-estradiol]: the protection was over 50%.
